Experiments:
Assay type in all cases: in vivo
[1] = tested on: Puccinia recondita f. sp. tritici; assay: Puccinia recondita f. sp. tritici / wheat / leaf disc preventative (brown rust); conditions: foliar, wheat leaf segments cv. Kanzler, inoculated 1 day after application, assessed 7-9 days after application, read-out: control of Puccinia recondita f. sp. tritici (percent disease control compared to untreated)
Experimental: Puccinia recondita f. Sp. Tritici/Wheat/Leaf Disc Preventative (Brown Rust) Wheat leaf segments cv. Kanzler are placed on agar in multiwell plates (24-well format) and sprayed with the formulated test compound diluted in water. The leaf disks are inoculated with a spore suspension of the fungus 1 day after application. The inoculated leaf segments are incubated at 19° C. and 75% rh under a light regime of 12 h light/12 h darkness in a climate cabinet and the activity of a compound is assessed as percent disease control compared to untreated when an appropriate level of disease damage appears in untreated check leaf segments (7-9 days after application).

[2] = tested on: Blumeria graminis f. sp. tritici (Erysiphe graminis f. sp. tritici); assay: Blumeria graminis f. sp. tritici / wheat / leaf disc preventative (powdery mildew on wheat); conditions: foliar, wheat leaf segments cv. Kanzler, inoculated 1 day after application, assessed 6-8 days after application, read-out: control of Blumeria graminis f. sp. tritici (percent disease control compared to untreated)
Experimental: Blumeria graminis f. sp. tritici (Erysiphe graminis f. sp. tritici)/Wheat/Leaf Disc Preventative (Powdery Mildew on Wheat) Wheat leaf segments cv. Kanzler are placed on agar in a multiwell plate (24-well format) and sprayed with the formulated test compound diluted in water. The leaf disks are inoculated by shaking powdery mildew infected plants above the test plates 1 day after application. The inoculated leaf disks are incubated at 20° C. and 60% rh under a light regime of 24 h darkness followed by 12 h light/12 h darkness in a climate chamber and the activity of a compound is assessed as percent disease control compared to untreated when an appropriate level of disease damage appears on untreated check leaf segments (6-8 days after application).

[3] = tested on: Puccinia recondita f. sp. tritici; assay: Puccinia recondita f. sp. tritici / wheat / leaf disc curative (brown rust); conditions: foliar, wheat leaf segments cv. Kanzler, compound applied 1 day after inoculation, assessed 6-8 days after application, read-out: control of Puccinia recondita f. sp. tritici (percent disease control compared to untreated)
Experimental: Puccinia recondita f. Sp. Tritici/Wheat/Leaf Disc Curative (Brown Rust) Wheat leaf segments cv. Kanzler are placed on agar in multiwell plates (24-well format). The leaf segments are inoculated with a spore suspension of the fungus. Plates are stored in darkness at 19° C. and 75% rh. The formulated test compound diluted in water is applied 1 day after inoculation. The leaf segments are incubated at 19° C. and 75% rh under a light regime of 12 h light/12 h darkness in a climate cabinet and the activity of a compound is assessed as percent disease control compared to untreated when an appropriate level of disease damage appears in untreated check leaf segments (6-8 days after application).

**Q.** What does the source list for `CCN(C)/C=N/c1cc(OC)c(C(O)(CSC)C(F)(F)F)cc1C` (stereo not drawn) [E.070, N-ethyl-N′-[5-methoxy-2-methyl-4-[2,2,2-trifluoro-1-hydroxy-1-(methylsulfanylmethyl)ethyl]phenyl]-N-methyl-formamidine]?
**A.** pest or weed control at 200 ppm [1]: ≥ 80%; pest or weed control at 200 ppm [2]: ≥ 80%

**Q.** What does the source list for `CCC1OCC(C)(COCC(O)(c2cc(C)c(/N=C/N(C)CC)cc2OC)C(F)(F)F)CO1` (stereo not drawn) [E.017, N-ethyl-N′-[4-[1-[(2-ethyl-5-methyl-1,3-dioxan-5-yl)methoxymethyl]-2,2,2-trifluoro-1-hydroxy-ethyl]-5-methoxy-2-methyl-phenyl]-N-methyl-formamidine]?
**A.** pest or weed control at 200 ppm [3]: ≥ 80%; pest or weed control at 200 ppm [1]: ≥ 80%; pest or weed control at 200 ppm [2]: ≥ 80%

**Q.** `CCN(C)/C=N/c1cc(OC)c(C(O)(COCC2(CC)COC2)C(F)(F)F)cc1C` (stereo not drawn) [E.034, N-ethyl-N′-[4-[1-[(3-ethyloxetan-3-yl)methoxymethyl]-2,2,2-trifluoro-1-hydroxy-ethyl]-5-methoxy-2-methyl-phenyl]-N-methyl-formamidine] was tested. Which pest or weed control at 200 ppm [3] did it give?
**A.** ≥ 80%

**Q.** What about the pest or weed control at 200 ppm [1] of the same compound?
**A.** ≥ 80%

**Q.** And the pest or weed control at 200 ppm [2]?
**A.** ≥ 80%

**Q.** For `CCN(C)/C=N/c1cc(OC)c(C(O)(COCCON=C(C)C)C(F)(F)F)cc1C` (stereo not drawn) [E.016, N-ethyl-N′-[5-methoxy-2-methyl-4-[2,2,2-trifluoro-1-hydroxy-1-[2-(isopropylideneamino)oxyethoxymethyl]ethyl]phenyl]-N-methyl-formamidine], which pest or weed control at 200 ppm [3] is on record?
**A.** ≥ 80%

**Q.** What about the pest or weed control at 200 ppm [1] of the same compound?
**A.** ≥ 80%

**Q.** And the pest or weed control at 200 ppm [2]?
**A.** ≥ 80%

**Q.** How did the pest or weed control at 200 ppm [3] turn out when `CCN(C)/C=N/c1cc(OC)c(C(O)(COC2Cc3ccccc3C2)C(F)(F)F)cc1C` (stereo not drawn) [E.010, N-ethyl-N′-[5-methoxy-2-methyl-4-[2,2,2-trifluoro-1-hydroxy-1-(indan-2-yloxymethyl)ethyl]phenyl]-N-methyl-formamidine] was run?
**A.** ≥ 80%

**Q.** And the pest or weed control at 200 ppm [1]?
**A.** ≥ 80%

**Q.** What about the pest or weed control at 200 ppm [2] of the same compound?
**A.** ≥ 80%

**Q.** What does the source list for `CCN(C)/C=N/c1cc(OC)c(C(O)(COC2CCC(C)(C)CC2)C(F)(F)F)cc1C` (stereo not drawn) [E.038, N′-[4-[1-[(4,4-dimethylcyclohexoxy)methyl]-2,2,2-trifluoro-1-hydroxy-ethyl]-5-methoxy-2-methyl-phenyl]-N-ethyl-N-methyl-formamidine]?
**A.** pest or weed control at 200 ppm [3]: ≥ 80%; pest or weed control at 200 ppm [1]: ≥ 80%; pest or weed control at 200 ppm [2]: ≥ 80%

**Q.** Which results are given for `CCO/N=C(/CC(O)(c1cc(C)c(/N=C/N(C)CC)cc1OC)C(F)(F)F)c1ccccc1` (stereo not drawn) [E.058, N′-[4-[(3Z)-3-ethoxyimino-1-hydroxy-3-phenyl-1-(trifluoromethyl)propyl]-5-methoxy-2-methyl-phenyl]-N-ethyl-N-methyl-formamidine]?
**A.** pest or weed control at 200 ppm [3]: ≥ 80%; pest or weed control at 200 ppm [1]: ≥ 80%; pest or weed control at 200 ppm [2]: ≥ 80%

**Q.** How did the pest or weed control at 200 ppm [3] turn out when `CCN(C)/C=N/c1cc(OC)c(C(O)(COC2CCC2)C(F)(F)F)cc1C` (stereo not drawn) [E.025, N′-[4-[1-(cyclobutoxymethyl)-2,2,2-trifluoro-1-hydroxy-ethyl]-5-methoxy-2-methyl-phenyl]-N-ethyl-N-methyl-formamidine] was run?
**A.** ≥ 80%

**Q.** What about the pest or weed control at 200 ppm [1] of the same compound?
**A.** ≥ 80%

**Q.** And the pest or weed control at 200 ppm [2]?
**A.** ≥ 80%

**Q.** How did the pest or weed control at 200 ppm [3] turn out when `CCN(C)/C=N/c1cc(OC)c(C(O)(C2CCS(=O)(=O)CC2)C(F)(F)F)cc1C` (stereo not drawn) [E.076, N′-[4-[1-(1,1-dioxothian-4-yl)-2,2,2-trifluoro-1-hydroxy-ethyl]-5-methoxy-2-methyl-phenyl]-N-ethyl-N-methyl-formamidine] was run?
**A.** ≥ 80%

**Q.** How did the pest or weed control at 200 ppm [3] turn out when `C=CCOCCOCC(O)(c1cc(C)c(/N=C/N(C)CC)cc1OC)C(F)(F)F` (stereo not drawn) [E.030, N′-[4-[1-(2-allyloxyethoxymethyl)-2,2,2-trifluoro-1-hydroxy-ethyl]-5-methoxy-2-methyl-phenyl]-N-ethyl-N-methyl-formamidine] was run?
**A.** ≥ 80%

**Q.** And the pest or weed control at 200 ppm [1]?
**A.** ≥ 80%

**Q.** And the pest or weed control at 200 ppm [2]?
**A.** ≥ 80%

**Q.** With `CCN(C)/C=N/c1cc(OC)c(C(O)(COCC2(C)COC2)C(F)(F)F)cc1C` (stereo not drawn) [E.018, N-ethyl-N′-[5-methoxy-2-methyl-4-[2,2,2-trifluoro-1-hydroxy-1-[(3-methyloxetan-3-yl)methoxymethyl]ethyl]phenyl]-N-methyl-formamidine] as the compound, how does the pest or weed control at 200 ppm [3] read?
**A.** ≥ 80%

**Q.** What about the pest or weed control at 200 ppm [1] of the same compound?
**A.** ≥ 80%

**Q.** And the pest or weed control at 200 ppm [2]?
**A.** ≥ 80%

**Q.** Which results are given for `CCN(C)/C=N/c1cc(OC)c(C(O)(COC2CCc3ccccc32)C(F)(F)F)cc1C` (stereo not drawn) [E.005, N-ethyl-N′-[5-methoxy-2-methyl-4-[2,2,2-trifluoro-1-hydroxy-1-(indan-1-yloxymethyl)ethyl]phenyl]-N-methyl-formamidine]?
**A.** pest or weed control at 200 ppm [3]: ≥ 80%; pest or weed control at 200 ppm [1]: ≥ 80%; pest or weed control at 200 ppm [2]: ≥ 80%

**Q.** With `CCN(C)/C=N/c1cc(OC)c(C(O)(COCCc2ccc(F)cc2)C(F)(F)F)cc1C` (stereo not drawn) [E.026, N-ethyl-N′-[5-methoxy-2-methyl-4-[2,2,2-trifluoro-1-[2-(4-fluorophenyl)ethoxymethyl]-1-hydroxy-ethyl]phenyl]-N-methyl-formamidine] as the compound, how does the pest or weed control at 200 ppm [3] read?
**A.** ≥ 80%

**Q.** What about the pest or weed control at 200 ppm [1] of the same compound?
**A.** ≥ 80%

**Q.** What about the pest or weed control at 200 ppm [2] of the same compound?
**A.** ≥ 80%

**Q.** Which pest or weed control at 200 ppm [3] does the source give for `CCN(C)/C=N/c1cc(OC)c(C(O)(COCc2ccc3ccccc3c2)C(F)(F)F)cc1C` (stereo not drawn) [E.009, N-ethyl-N′-[5-methoxy-2-methyl-4-[2,2,2-trifluoro-1-hydroxy-1-(2-naphthylmethoxymethyl)ethyl]phenyl]-N-methyl-formamidine] here?
**A.** ≥ 80%

**Q.** What about the pest or weed control at 200 ppm [1] of the same compound?
**A.** ≥ 80%

**Q.** What about the pest or weed control at 200 ppm [2] of the same compound?
**A.** ≥ 80%

**Q.** For `CCN(C)/C=N/c1cc(OC)c(C(O)(COCC2CC2(F)F)C(F)(F)F)cc1C` (stereo not drawn) [E.031, N′-[4-[1-[(2,2-difluorocyclopropyl)methoxymethyl]-2,2,2-trifluoro-1-hydroxy-ethyl]-5-methoxy-2-methyl-phenyl]-N-ethyl-N-methyl-formamidine], which pest or weed control at 200 ppm [3] is on record?
**A.** ≥ 80%

**Q.** And the pest or weed control at 200 ppm [1]?
**A.** ≥ 80%

**Q.** And the pest or weed control at 200 ppm [2]?
**A.** ≥ 80%

**Q.** What does the source list for `CCN(C)/C=N/c1cc(OC)c(C(O)(COCc2ccco2)C(F)(F)F)cc1C` (stereo not drawn) [E.023, N-ethyl-N′-[5-methoxy-2-methyl-4-[2,2,2-trifluoro-1-(2-furylmethoxymethyl)-1-hydroxy-ethyl]phenyl]-N-methyl-formamidine]?
**A.** pest or weed control at 200 ppm [3]: ≥ 80%; pest or weed control at 200 ppm [1]: ≥ 80%; pest or weed control at 200 ppm [2]: ≥ 80%

**Q.** `CCC1CCC(OCC(O)(c2cc(C)c(/N=C/N(C)CC)cc2OC)C(F)(F)F)CC1` (stereo not drawn) [E.033, N-ethyl-N′-[4-[1-[(4-ethylcyclohexoxy)methyl]-2,2,2-trifluoro-1-hydroxy-ethyl]-5-methoxy-2-methyl-phenyl]-N-methyl-formamidine] was tested. Which pest or weed control at 200 ppm [3] did it give?
**A.** ≥ 80%

**Q.** What about the pest or weed control at 200 ppm [1] of the same compound?
**A.** ≥ 80%

**Q.** And the pest or weed control at 200 ppm [2]?
**A.** ≥ 80%

**Q.** How did the pest or weed control at 200 ppm [3] turn out when `CCN(C)/C=N/c1cc(OC)c(C(O)(COCc2cccc(C)c2)C(F)(F)F)cc1C` (stereo not drawn) [E.035, N-ethyl-N′-[5-methoxy-2-methyl-4-[2,2,2-trifluoro-1-hydroxy-1-(m-tolylmethoxymethyl)ethyl]phenyl]-N-methyl-formamidine] was run?
**A.** ≥ 80%

**Q.** And the pest or weed control at 200 ppm [1]?
**A.** ≥ 80%

**Q.** What about the pest or weed control at 200 ppm [2] of the same compound?
**A.** ≥ 80%

**Q.** Which pest or weed control at 200 ppm [3] does the source give for `CCN(C)/C=N/c1cc(OC)c(C(O)(COCC(C)(C)COC(C)(C)C)C(F)(F)F)cc1C` (stereo not drawn) [E.015, N′-[4-[1-[(3-tert-butoxy-2,2-dimethyl-propoxy)methyl]-2,2,2-trifluoro-1-hydroxy-ethyl]-5-methoxy-2-methyl-phenyl]-N-ethyl-N-methyl-formamidine] here?
**A.** ≥ 80%

**Q.** What about the pest or weed control at 200 ppm [1] of the same compound?
**A.** ≥ 80%

**Q.** What about the pest or weed control at 200 ppm [2] of the same compound?
**A.** ≥ 80%

**Q.** Which results are given for `CCCSCC(O)(c1cc(C)c(/N=C/N(C)CC)cc1OC)C(F)(F)F` (stereo not drawn) [E.062, N-ethyl-N′-[5-methoxy-2-methyl-4-[2,2,2-trifluoro-1-hydroxy-1-(propylsulfanylmethyl)ethyl]phenyl]-N-methyl-formamidine]?
**A.** pest or weed control at 200 ppm [3]: ≥ 80%; pest or weed control at 200 ppm [2]: ≥ 80%

**Q.** How did the pest or weed control at 200 ppm [3] turn out when `CCN(C)/C=N/c1cc(OC)c(C(O)(COCCc2ccc(OC)c(OC)c2)C(F)(F)F)cc1C` (stereo not drawn) [E.022, N′-[4-[1-[2-(3,4-dimethoxyphenyl)ethoxymethyl]-2,2,2-trifluoro-1-hydroxy-ethyl]-5-methoxy-2-methyl-phenyl]-N-ethyl-N-methyl-formamidine] was run?
**A.** ≥ 80%

**Q.** And the pest or weed control at 200 ppm [2]?
**A.** ≥ 80%

**Q.** What does the source list for `CCN(C)/C=N/c1cc(OC)c(C(O)(CSC(C)C)C(F)(F)F)cc1C` (stereo not drawn) [E.071, N-ethyl-N′-[5-methoxy-2-methyl-4-[2,2,2-trifluoro-1-hydroxy-1-(isopropylsulfanylmethyl)ethyl]phenyl]-N-methyl-formamidine]?
**A.** pest or weed control at 200 ppm [1]: ≥ 80%; pest or weed control at 200 ppm [2]: ≥ 80%
